From ChEMBL document CHEMBL4765380, “Synthesis, structure and anticancer activity of new geldanamycin amine analogs containing C(17)- or C(20)- flexible and rigid arms as well as closed or open ansa-bridges” (Eur J Med Chem, 2020)

Tests used:
SK-BR-3 = test: Antiproliferative activity against human SK-BR-3 cells assessed as reduction in cell growth incubated for 72 hrs by SRB assay; format: functional, cell-based; conditions: SK-BR-3, 72 h
SK-OV-3 = test: Antiproliferative activity against human SK-OV-3 cells assessed as reduction in cell growth incubated for 72 hrs by SRB assay; format: functional, cell-based; conditions: SK-OV-3, 72 h
PC-3 = test: Antiproliferative activity against human PC-3 cells assessed as reduction in cell growth incubated for 72 hrs by SRB assay; format: functional, cell-based; conditions: PC-3, 72 h
U-87 MG = test: Antiproliferative activity against human U-87 MG cells assessed as reduction in cell growth incubated for 72 hrs by SRB assay; format: functional, cell-based, U-87MG ATCC
A549 = test: Antiproliferative activity against human A549 cells assessed as reduction in cell growth incubated for 72 hrs by SRB assay; format: functional, cell-based; conditions: A549, 72 h
[1] = Cytotoxicity against human HDF cells assessed as reduction in cell growth incubated for 72 hrs by SRB assay; format: cell-based; conditions: HDFa
[2] = Selectivity index, ratio of IC50 for cytotoxicity against human HDF cells to IC50 for cytotoxicity against human SK-BR-3 cells; format: toxicity, cell-based; conditions: HDF cells versus SK-BR-3 cells, read-out: Ratio IC50
[3] = Selectivity index, ratio of IC50 for cytotoxicity against human HDF cells to IC50 for cytotoxicity against human SK-OV-3 cells
[4] = Selectivity index, ratio of IC50 for cytotoxicity against human HDF cells to IC50 for cytotoxicity against human PC-3 cells; format: toxicity, cell-based; conditions: HDF cells versus PC-3 cells, read-out: Ratio IC50
[5] = Selectivity index, ratio of IC50 for cytotoxicity against human HDF cells to IC50 for cytotoxicity against human U-87 MG cells; format: toxicity, cell-based; conditions: HDF cells versus U-87 MG cells, read-out: Ratio IC50
[6] = Selectivity index, ratio of IC50 for cytotoxicity against human HDF cells to IC50 for cytotoxicity against human A549 cells; format: toxicity, cell-based; conditions: HDF cells versus A549 cells, read-out: Ratio IC50
[7] = Octanol/water partition coefficient, logP of compound incubated for 1 hr by UV-visible spectrophotometry; format: physicochemical
[8] = Binding affinity to HSP90 (unknown origin) assessed as dissociation constant by isothermal titration calorimetry; design: species or system Homo sapiens
[9] = Binding affinity to yeast HSP90 assessed as dissociation constant by isothermal titration calorimetry; design: species or system Saccharomyces cerevisiae
[10] = Binding affinity to HSP90 (unknown origin); design: species or system Homo sapiens

SMILES	IC50 (SK-BR-3) [nM]	IC50 (SK-OV-3) [nM]	IC50 (PC-3) [nM]	IC50 (U-87 MG) [nM]	IC50 (A549) [nM]	IC50 [1] [nM]	selectivity ratio [2]	Ratio IC50 [3]	selectivity ratio [4]	selectivity ratio [5]	selectivity ratio [6]	logP at 1 h [7]	Kd [8] [nM]	Kd [9] [nM]	Kd [10] [nM]
COCCOCCOCCNC1=C2C[C@@H](C)C[C@H](OC)[C@H](O)[C@@H](C)/C=C(\C)[C@H](OC(N)=O)[C@@H](OC)/C=C\C=C(/C)C(=O)NC(=CC1=O)C2=O	930	740	810	790	910	2770	2.98	3.74	3.42	3.51	3.04	2.02	1370	–	–
C#CCCN1CCC(NC2=C3C[C@@H](C)C[C@H](OC)[C@H](O)[C@@H](C)/C=C(\C)[C@H](OC(N)=O)[C@@H](OC)/C=C\C=C(/C)C(=O)NC(=CC2=O)C3=O)CC1	4710	4730	4090	4860	4370	11700	2.49	2.48	2.87	2.42	2.69	–	2960	–	–
CO[C@@H](/C=C/C=C(/C)C(N)=O)[C@@H](OC(N)=O)/C(C)=C/[C@H](C)[C@@H](O)[C@H](C[C@H](C)CC1=C(NCCCCO)C(=O)C=C(NCCCCO)C1=O)OC	4210	4270	4530	4070	4110	6360	1.51	1.49	1.4	1.56	1.55	–	–	–	–
CO[C@@H](C=CC=C(C)C(N)=O)[C@@H](OC(N)=O)/C(C)=C/[C@H](C)[C@@H](O)[C@H](C[C@H](C)CC1=C(NCCO)C(=O)C=C(NCCO)C1=O)OC	2080	2660	2130	2040	2380	4840	2.33	1.82	2.72	3.42	2.03	–	134000	–	–
CO[C@@H](C=CC=C(C)C(N)=O)[C@@H](OC(N)=O)/C(C)=C/[C@H](C)[C@@H](O)[C@H](C[C@H](C)CC1=C(NCCOCCO)C(=O)C=C(NCCOCCO)C1=O)OC	12000	12400	13000	12600	11400	31300	2.62	2.53	2.41	2.49	2.73	–	–	–	–
CO[C@H]1/C=C\C=C(/C)C(=O)NC2=CC(=O)C(NC3CCN(C(=O)OC(C)(C)C)CC3)=C(C[C@@H](C)C[C@H](OC)[C@H](O)[C@@H](C)/C=C(\C)[C@@H]1OC(N)=O)C2=O	77	83	190	84	77	2550	33.1	30.7	13.4	30.4	33.1	3.11	820	–	–
CO[C@H]1/C=C\C=C(/C)C(=O)NC2=CC(=O)C(NCC3COCCOCCOCCOCCOCCO3)=C(C[C@@H](C)C[C@H](OC)[C@H](O)[C@@H](C)/C=C(\C)[C@@H]1OC(N)=O)C2=O (stereo partly specified)	710	660	600	840	1090	4070	5.73	6.17	6.78	4.85	3.73	–	1190	–	–
CO[C@H]1/C=C\C=C(/C)C(=O)NC2=CC(=O)C(NCC3CCC(C(=O)O)CC3)=C(C[C@@H](C)C[C@H](OC)[C@H](O)[C@@H](C)/C=C(\C)[C@@H]1OC(N)=O)C2=O (stereo partly specified)	2610	2790	2360	2810	2910	7370	2.82	2.64	3.12	2.52	2.53	–	940	–	–
CO[C@@H](/C=C/C=C(/C)C(N)=O)[C@@H](OC(N)=O)/C(C)=C/[C@H](C)[C@@H](O)[C@H](C[C@H](C)CC1=C(NCCCN2CCCC2)C(=O)C=C(NCCCN2CCCC2)C1=O)OC	8260	9410	9070	8490	8110	20600	2.49	2.19	2.27	2.43	2.54	–	–	–	–
CCOC(=O)N1CCC(NC2=C3C[C@@H](C)C[C@H](OC)[C@H](O)[C@@H](C)/C=C(\C)[C@H](OC(N)=O)[C@@H](OC)/C=C\C=C(/C)C(=O)NC(=CC2=O)C3=O)CC1	1580	–	1150	1090	1130	5390	3.41	3.96	4.69	4.94	4.77	2.39	890	–	–
CO[C@@H](C=CC=C(C)C(N)=O)[C@@H](OC(N)=O)/C(C)=C/[C@H](C)[C@@H](O)[C@H](C[C@H](C)CC1=C(NCCCCCCO)C(=O)C=C(NCCCCCCO)C1=O)OC	–	11900	11700	11400	11000	–	–	1.47	1.48	1.52	1.57	–	183000	–	–
CO[C@H]1/C=C\C=C(/C)C(=O)NC2=CC(=O)C(NC3CCN(S(C)(=O)=O)CC3)=C(C[C@@H](C)C[C@H](OC)[C@H](O)[C@@H](C)/C=C(\C)[C@@H]1OC(N)=O)C2=O	2190	2490	2010	2330	2930	6420	2.93	2.58	3.19	2.76	2.19	–	–	–	–
CCOC(=O)C1CCC(CNC2=C3C[C@@H](C)C[C@H](OC)[C@H](O)[C@@H](C)/C=C(\C)[C@H](OC(N)=O)[C@@H](OC)/C=C\C=C(/C)C(=O)NC(=CC2=O)C3=O)CC1 (stereo partly specified)	590	550	570	620	590	2150	3.64	3.91	3.21	3.47	3.64	2.9	900	–	–
Nc1ccn([C@@H]2O[C@H](CO)[C@@H](O)[C@@H]2O)c(=O)n1 [CYTARABINE]	870	990	810	850	830	5940	6.83	6	7.33	6.99	7.16	–	–	–	–
COC1=C2C[C@@H](C)C[C@H](OC)[C@H](O)[C@@H](C)/C=C(\C)[C@H](OC(N)=O)[C@@H](OC)/C=C\C=C(/C)C(=O)NC(=CC1=O)C2=O [GELDANAMYCIN]	870	940	730	810	990	2130	2.45	2.27	2.92	2.62	2.15	–	–	1220	10500
C=CCNC1=C2C[C@@H](C)C[C@H](OC)[C@H](O)[C@@H](C)/C=C(\C)[C@H](OC(N)=O)[C@@H](OC)/C=C\C=C(/C)C(=O)NC(=CC1=O)C2=O [TANESPIMYCIN]	38	220	62	> 10000	> 10000	1200	49	–	–	51	52	–	–	–	2480
